Source: patent publication US9115143B2, “Substituted indole derivatives as gamma secretase modulators” (Janssen Pharmaceuticals, Inc., priority 2011, dated 2015)

What was measured:
Aβ42 = test: Screening for γ-secretase-modulating activity: Aβ42 in supernatant of SKNBE2 cells carrying hAPP 695 wild type (Alphalisa); format: cell-based, human; conditions: overnight incubation, Alphalisa on supernatant
Experimental: (§1) Pharmacology A) Screening of the Compounds of the Invention for γ-Secretase-Modulating Activity
(§2) Screening was carried out using SKNBE2 human neuroblastoma cells carrying the hAPP 695—wild type, grown in Dulbecco's Modified Eagle's Medium/Nutrient mixture F-12 (DMEM/NUT-mix F-12) (HAM) provided by Invitrogen (cat no. 10371-029) containing 5% Serum/Fe supplemented with 1% non-essential amino acids, 1-glutamine 2 mM, Hepes 15 mM, penicillin 50 U/mL (units/mL) en streptomycin 50 μg/mL. Cells were grown to near confluency.
(§3) The screening was performed using a modification of the assay as described in Citron et al (1997) Nature Medicine 3: 67. Briefly, cells were plated in a 384-well plate at 10^4 cells/well in Ultraculture (Lonza, BE12-725F) supplemented with 1% glutamine (Invitrogen, 25030-024), 1% non-essential amino acid (NEAA), penicillin 50 U/mL en streptomycin 50 μg/mL in the presence of test compound at different test concentrations. The cell/compound mixture was incubated overnight at 37° C., 5% CO2. The next day the media were assayed by two sandwich immuno-assays, for Aβ42 and Aβtotal.
(§4) Aβtotal and Aβ42 concentrations were quantified in the cell supernatant using the Aphalisa technology (Perkin Elmer). Alphalisa is a sandwich assay using biotinylated antibody attached to streptavidin coated donorbeads and antibody conjugated to acceptor beads. In the presence of antigen, the beads come into close proximity. The excitation of the donor beads provokes the release of singlet oxygen molecules that trigger a cascade of energy transfer in the acceptor beads, resulting in light emission. To quantify the amount of Aβ42 in the cell supernatant, monoclonal antibody specific to the C-terminus of Aβ42 (JRF/cAβ42/26) was coupled to the receptor beads and biotinylated antibody specific to the N-terminus of Aβ (JRF/AβN/25) was used to react with the donor beads. To quantify the amount of Aβ total in the cell supernatant, monoclonal antibody specific to the N-terminus of Aβ (JRF/AβN/25) was coupled to the receptor beads and biotinylated antibody specific to the mid region of Aβ (biotinylated 4G8) was used to react with the donor beads.
(§5) To obtain the values reported in Table 3, the data are calculated as percentage of the maximum amount of amyloid Beta 42 measured in the absence of the test compound. The sigmoidal dose response curves were analyzed using nonlinear regression analysis with percentage of the control plotted against the log concentration of the compound. A 4-parameter equation was used to determine the IC50.

Aβtotal = test: Screening for γ-secretase-modulating activity: Aβtotal in supernatant of SKNBE2 cells carrying hAPP 695 wild type (Alphalisa); format: cell-based, human; conditions: overnight incubation, Alphalisa on supernatant
Experimental: as §1, §2, §3, §4, §5

[1] = Homo sapiens, SKNBE2, SKNBE2 human neuroblastoma cells carrying hAPP 695 wild type
[2] = SKNBE2 human neuroblastoma cells carrying hAPP 695 wild type

| SMILES | IC50 (Aβ42; [1]) | IC50 (Aβtotal; [1]) | IC50 (Aβ42; [2]) | IC50 (Aβtotal; [2]) |
| --- | --- | --- | --- | --- |
| Cc1cn(-c2ccc3[nH]c(-c4nc5n(n4)CCOC5c4ccc(F)c(F)c4C)cc3c2)cn1 (stereo not drawn) [Compound 104, 8-(3,4-difluoro-2-methylphenyl)-5,6-dihydro-2-[5-(4-methyl-1H-imidazol-1-yl)-1H-indol-2-yl]-8H-[1,2,4]triazolo[5,1-c][1,4]oxazine] | 0.044 µM | > 10 µM |  |  |
| Cc1cc(F)ccc1C1OCCn2cc(-c3cc4nc(-c5cnn(C)c5)ccc4[nH]3)nc21 (single isomer, unassigned) [Compound 101, 8-(4-fluoro-2-methylphenyl)-5,6-dihydro-2-[5-(1-methyl-1H-pyrazol-4-yl)-1H-pyrrolo[3,2-b]pyridin-2-yl]-8H-imidazo[2,1-c][1,4]oxazine] |  | > 10 µM | 2.19 µM |  |
| Cc1cc(F)ccc1C1OCCn2nc(-c3cc4cc(-c5cnn(C)c5)ccc4[nH]3)nc21 (stereo not drawn) [Compound 107, 8-(4-fluoro-2-methylphenyl)-5,6-dihydro-2-[5-(1-methyl-1H-pyrazol-4-yl)-1H-indol-2-yl]-8H-[1,2,4]triazolo[5,1-c][1,4]oxazine] | 0.148 µM | > 10 µM |  |  |
| COc1c(C#N)ccc2[nH]c(-c3nc4n(n3)CCOC4c3c(F)cccc3C(F)(F)F)cc12 (stereo not drawn) [Compound 162, 2-[8-[2-fluoro-6-(trifluoromethyl)phenyl]-5,6-dihydro-8H-[1,2,4]triazolo[5,1-c][1,4]oxazin-2-yl]-4-methoxy-1H-indole-5-carbonitrile] |  |  | 6.92 µM | > 10 µM |
| Cc1ccc(C(F)(F)F)cc1C1CCCn2nc(-c3cc4cc(C#N)cnc4[nH]3)nc21 (stereo not drawn) [Compound 3, 2-[5,6,7,8-tetrahydro-8-[2-methyl-5-(trifluoromethyl)phenyl][1,2,4]triazolo[1,5-a]pyridin-2-yl]-1H-pyrrolo[2,3-b]pyridine-5-carbonitrile] | 0.437 µM | > 10 µM |  |  |
| Cc1cc(F)ccc1C1CCCn2nc(-c3cc4cc(C#N)ccc4[nH]3)nc21 (stereo not drawn) [Compound 11, 2-[8-(4-fluoro-2-methylphenyl)-5,6,7,8-tetrahydro[1,2,4]triazolo[1,5-a]pyridin-2-yl]-1H-indole-5-carbonitrile] |  |  | 3.47 µM | > 10 µM |
| COc1c(C#N)ccc2[nH]c(-c3cn4c(n3)C(c3c(F)cccc3C(F)(F)F)OCC4)cc12 (stereo not drawn) [Compound 152, 2-[8-[2-fluoro-6-(trifluoromethyl)phenyl]-5,6-dihydro-8H-imidazo[2,1-c][1,4]oxazin-2-yl]-4-methoxy-1H-indole-5-carbonitrile] |  |  | 3.8 µM | > 10 µM |
| CCOc1c(C#N)ccc2[nH]c(-c3nc4n(n3)CCOC4c3ccc(F)cc3C)cc12 (stereo not drawn) [Compound 171, 4-ethoxy-2-[8-(4-fluoro-2-methylphenyl)-5,6-dihydro-8H-[1,2,4]triazolo[5,1-c][1,4]oxazin-2-yl]-1H-indole-5-carbonitrile] | 0.151 µM | > 10 µM |  |  |
| COc1c(C#N)ccc2[nH]c(-c3cn4c(n3)C(c3c(F)cccc3Cl)OCC4)cc12 (stereo not drawn) [Compound 119, 2-[8-(2-chloro-6-fluorophenyl)-5,6-dihydro-8H-imidazo[2,1-c][1,4]oxazin-2-yl]-4-methoxy-1H-indole-5-carbonitrile] | 0.055 µM | > 10 µM |  |  |
| Cc1cn(-c2ccc3cc(-c4nc5n(n4)CCCC5c4ccc(F)cc4C)[nH]c3c2)cn1 (stereo not drawn) [Compound 93] | 1.48 µM | > 10 µM |  |  |

Second part, the compound after the results:

| IC50 (Aβ42; [1]) | IC50 (Aβtotal; [1]) | IC50 (Aβ42; [2]) | IC50 (Aβtotal; [2]) | SMILES |
| --- | --- | --- | --- | --- |
|  | > 10 µM | 0.033 µM |  | COc1c(C#N)ccc2[nH]c(-c3nc4n(n3)CCOC4c3cccc(F)c3C)cc12 (stereo not drawn) [Compound 127, 2-[8-(3-fluoro-2-methylphenyl)-5,6-dihydro-8H-[1,2,4]triazolo[5,1-c][1,4]oxazin-2-yl]-4-methoxy-1H-indole-5-carbonitrile] |
|  | > 10 µM | 0.214 µM |  | COc1c(C#N)ccc2[nH]c(-c3nc4n(n3)CCOC4c3ccc(F)c(Cl)c3)cc12 (stereo not drawn) [Compound 144, 2-[8-(3-chloro-4-fluorophenyl)-5,6-dihydro-8H-[1,2,4]triazolo[5,1-c][1,4]oxazin-2-yl]-4-methoxy-1H-indole-5-carbonitrile] |
|  | > 10 µM | 0.021 µM |  | COc1c(-n2cnc(C)c2)ccc2[nH]c(-c3cn4c(n3)C(c3ccc(F)cc3C)OCC4)cc12 (single isomer, unassigned) [Compound 112, 8-(4-fluoro-2-methylphenyl)-5,6-dihydro-2-[4-methoxy-5-(4-methyl-1H-imidazol-1-yl)-1H-indol-2-yl]-8H-imidazo[2,1-c][1,4]oxazine] |
|  |  | 0.372 µM | > 10 µM | COc1c(C#N)ccc2[nH]c(-c3cn4c(n3)C(c3ccccc3C(F)(F)F)OCC4)cc12 (single isomer, unassigned) [Compound 45, 2-[5,6-dihydro-8-[2-(trifluoromethyl)phenyl]-8H-imidazo[2,1-c][1,4]oxazin-2-yl]-4-methoxy-1H-indole-5-carbonitrile] |
|  | > 10 µM | 0.065 µM |  | Cc1cn(-c2cnc3[nH]c(-c4nc5n(n4)CCCC5c4ccc(F)cc4C)cc3c2)cn1 (single isomer, unassigned) [Compound 88, 8-(4-fluoro-2-methylphenyl)-5,6,7,8-tetrahydro-2-[5-(4-methyl-1H-imidazol-1-yl)-1H-pyrrolo[2,3-b]pyridin-2-yl]-[1,2,4]triazolo[1,5-a]pyridine] |
|  | > 10 µM | 0.054 µM |  | COc1c(C#N)ccc2[nH]c(-c3cn4c(n3)C(c3cc(F)ccc3C)OCC4)cc12 (stereo not drawn) [Compound 151, 2-[8-(5-fluoro-2-methylphenyl)-5,6-dihydro-8H-imidazo[2,1-c][1,4]oxazin-2-yl]-4-methoxy-1H-indole-5-carbonitrile] |
|  | > 10 µM | 0.03 µM |  | COc1c(-n2cnc(C)c2)ccc2[nH]c(-c3cn4c(n3)C(c3ccc(F)cc3C)CCC4)cc12 (single isomer, unassigned) [Compound 78, 8-(4-fluoro-2-methylphenyl)-5,6,7,8-tetrahydro-2-[4-methoxy-5-(4-methyl-1H-imidazol-1-yl)-1H-indol-2-yl]-imidazo[1,2-a]pyridine] |
|  |  | 1.26 µM | > 10 µM | COc1c(C#N)ccc2[nH]c(-c3cn4c(n3)C(c3cccc(C)c3F)OCC4)cc12 (single isomer, unassigned) [Compound 136, 2-[8-(2-fluoro-3-methylphenyl)-5,6-dihydro-8H-imidazo[2,1-c][1,4]oxazin-2-yl]-4-methoxy-1H-indole-5-carbonitrile] |
|  | > 10 µM | 0.056 µM |  | COCc1ccccc1C1CCCn2nc(-c3cc4c(OC)c(C#N)ccc4[nH]3)nc21 (stereo not drawn) [Compound 89, 4-methoxy-2-[5,6,7,8-tetrahydro-8-[2-(methoxymethyl)phenyl][1,2,4]triazolo[1,5-a]pyridin-2-yl]-1H-indole-5-carbonitrile] |
|  | > 10 µM | 0.058 µM |  | COc1c(C#N)ccc2[nH]c(-c3cn4c(n3)C(c3ccccc3Cl)OCC4)cc12 (stereo not drawn) [Compound 49, 2-[8-(2-chlorophenyl)-5,6-dihydro-8H-imidazo[2,1-c][1,4]oxazin-2-yl]-4-methoxy-1H-indole-5-carbonitrile] |
|  |  | 0.048 µM | 5.37 µM | COc1c(-n2cnc(C)c2)ccc2[nH]c(-c3nc4n(n3)CCCC4c3ccc(F)cc3C)cc12 (single isomer, unassigned) [Compound 84, 8-(4-fluoro-2-methylphenyl)-5,6,7,8-tetrahydro-2-[4-methoxy-5-(4-methyl-1H-imidazol-1-yl)-1H-indol-2-yl]-[1,2,4]triazolo[1,5-a]pyridine] |
|  | > 10 µM | 0.055 µM |  | COc1c(C#N)ccc2[nH]c(-c3cn4c(n3)C(c3c(F)cccc3C(F)(F)F)OCC4)cc12 (stereo not drawn) [Compound 126, 2-[8-[2-fluoro-6-(trifluoromethyl)phenyl]-5,6-dihydro-8H-imidazo[2,1-c][1,4]oxazin-2-yl]-4-methoxy-1H-indole-5-carbonitrile] |
|  | > 10 µM | 0.251 µM |  | Cc1cc(F)ccc1C1OCCn2nc(-c3cc4c(OC(C)C)c(C#N)ccc4[nH]3)nc21 (single isomer, unassigned) [Compound 173, 2-[8-(4-fluoro-2-methylphenyl)-5,6-dihydro-8H-[1,2,4]triazolo[5,1-c][1,4]oxazin-2-yl]-4-(1-methylethoxy)-1H-indole-5-carbonitrile] |
|  |  | 0.04 µM | > 10 µM | COCc1ccccc1C1CCCn2nc(-c3cc4c(OC)c(C#N)ccc4[nH]3)nc21 (stereo not drawn) [Compound 90, 4-methoxy-2-[5,6,7,8-tetrahydro-8-[2-(methoxymethyl)phenyl][1,2,4]triazolo[1,5-a]pyridin-2-yl]-1H-indole-5-carbonitrile] |
